Source: paper PMC2862727 (Molecular immunology, 2010)
“Also recorded” adds a separate entry of the source. One block for each compound: values may come before it.

Tests used:
[1] = tested on: IL-1β production in THP-1 cells; assay: IL-1β immunoblot of THP-1 cell lysates; conditions: for effect of inhibitor or antagonist alone on IL-1β generation: absence of receptor agonist, data not shown
[2] = target: β-AR mediating cAMP production in THP-1 cells (Homo sapiens, UniProt P08588); assay: Iso-induced cAMP production in THP-1 cells, Schild regression analysis; assay type: cell-based; conditions: inhibition of Iso mediated cAMP production in THP-1 cells, n = 4
[3] = tested on: specific ^125I-CYP binding sites on THP-1 membranes; conditions: one-site binding model, ref Talmadge, et al., 1993; cited from earlier work
[4] = tested on: β-AR binding sites on THP-1 cell membranes; assay: Saturation radioligand binding of 125I-CYP on crude THP-1 cell membranes; design: species or system human; conditions: THP-1 membranes, n = 6
[5] = tested on: secreted IL-1β from THP-1 cells; assay: ELISA of IL-1β secreted into media of THP-1 cells; assay type: cell-based, human; conditions: for secreted IL-1β in media: 2 h
[6] = tested on: inflammatory mediators secreted by THP-1 cells; assay: Cytokine antibody array of conditioned media from THP-1 cells; assay type: cell-based, human; conditions: 2 h, n = 3
[7] = tested on: IL-1β production in primary human monocytes; assay: IL-1β immunoblot of primary human monocyte lysates; assay type: cell-based; conditions: individual treatment (30 ng/mL LPS or 0.1 μM Iso alone), n = 3
[8] = individual treatment (30 ng/mL LPS or 0.1 μM Iso alone), n = 6, control 1.6 ± 0.5 pg/mL
[9] = 30 ng/mL LPS and 0.1 μM Iso simultaneously

Chain of β-AR mediating cAMP production in THP-1 cells (P08588 whole entry): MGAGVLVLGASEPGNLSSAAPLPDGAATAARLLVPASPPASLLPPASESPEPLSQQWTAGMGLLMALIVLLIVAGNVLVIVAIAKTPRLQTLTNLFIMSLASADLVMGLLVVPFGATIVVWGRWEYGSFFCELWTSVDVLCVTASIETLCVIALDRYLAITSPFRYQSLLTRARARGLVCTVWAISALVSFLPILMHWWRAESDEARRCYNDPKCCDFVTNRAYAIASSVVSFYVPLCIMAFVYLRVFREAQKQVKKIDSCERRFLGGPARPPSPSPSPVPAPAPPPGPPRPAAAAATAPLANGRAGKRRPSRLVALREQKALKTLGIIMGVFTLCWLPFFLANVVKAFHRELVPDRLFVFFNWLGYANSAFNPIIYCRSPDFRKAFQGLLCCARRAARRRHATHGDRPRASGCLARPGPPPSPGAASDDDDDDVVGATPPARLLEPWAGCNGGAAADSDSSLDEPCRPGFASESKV

Compound: Cc1ccc(OCC(O)C(C)NC(C)C)c2c1CCC2 (racemic) [ICI 118,551, erythro-dl-1-(7-methylindan-4-yloxy)-3-isopropylaminobutan-2-ol]
effect of inhibitor or antagonist alone on IL-1β generation ([1]; THP-1 cells): no qualitative changes
Schild regression slope [2]: 1.0 ± 0.1
Ki [3]: 46 nM

Kd ([4]; read-out: equilibrium dissociation constant (Kd) of 125I-CYP, saturation binding): 0.0301 ± 0.0051 nM
Compound: CC(C)(C)NCC(O)COc1cccc2[nH]c(C#N)c(I)c12 (single isomer, unassigned; (-)) [^125I-CYP, (–)3-[^125I]iodocyanopindolol]

number of binding sites (Bmax) ([4]; labeled by 125I-CYP): 341 ± 77 fmol/mg protein
Compound: CC(C)(C)NCC(O)COc1cccc2[nH]c(C#N)c([125I])c12 (single isomer, unassigned; (-)) [^125I-CYP, (–)3-[^125I]iodocyanopindolol]

Compound: Cn1cc(C(F)(F)F)nc1-c1ccc(OCC(O)CNCCOc2ccc(O)c(C(N)=O)c2)cc1 (stereo not shown) [CGP 20712A, 1-(2-((3-carbamoyl-4-hydroxy)phenoxy)ethylamino)-3-(4-(1-methyl-4-trifluoromethyl-2-imidazoylyl)phenoxy)-2-propanol methanesulfonate]
effect of inhibitor or antagonist alone on IL-1β generation ([1]; THP-1 cells): no qualitative changes

Compound: Cl.Cl.O=S(=O)(NCCNCC=Cc1ccc(Br)cc1)c1cccc2cnccc12 [H-89, N-[2-(p-bromocinnamylamino)ethyl]-5-isoquinolinesulfonamide dihydrochloride]
effect of inhibitor or antagonist alone on IL-1β generation ([1]; THP-1 cells): did not alter responses
IL-1β produced, fold over LPS ([1]; THP-1 lysates, 100 nM H-89 pre-incubation then 30 ng/mL LPS plus 0.1 μM Iso (Fig 7), n = 6): 1.4±0.1 fold over LPS

Compound: CC(C)NCC(O)c1ccc(O)c(O)c1 (stereo not shown) [Iso, isoproterenol]
synergistic modulation of LPS mediated production of IL-1β ([1]; THP-1 cells, LPS plus Iso versus LPS alone): > 4 fold
difference in IL-1β released into media between LPS alone and LPS plus Iso [5]: > 4 fold
secreted IL-1β in media ([5]; 0.1 μM Iso plus 30 ng/mL LPS, n = 6): 76.3 ± 24.7 pg/mL
secreted IL-1β in media [5, 8]: 4.8 ± 1.4 pg/mL
LPS mediated TNF-α expression versus LPS alone [6, 9]: qualitative loss; also recorded: decreases
soluble IL-1β versus LPS stimulation alone [6, 9]: qualitative increase
expression pattern of inflammatory mediators versus basal ([6]; 0.1 μM Iso only): no differences in the expression pattern

Compound: lipopolysaccharide [LPS]
IL-1β produced, fold over basal ([1]; THP-1 lysates, individual treatment (30 ng/mL LPS or 0.1 μM Iso alone), 2 hr, n = 5): 12.1 ± 3.9 fold
IL-1β produced, fold over basal [7]: 3.4 ± 1.8 fold
secreted IL-1β in media [5, 8]: 16.9 ± 2.6 pg/mL
expression of secreted IL-1β and TNF-α versus control ([6]; 30 ng/mL LPS only): qualitative increase
